Test results as given in patent US20260224463A1, “COMPOSITIONS COMPRISING HYDROPHILIC ACTIVE INGREDIENTS IN OIL” (Lubrizol Advanced Materials, Inc., priority 2023, published 2026).

How the values were obtained:
[1] = Visual inspection of physical appearance of the compositions; type: physicochemical; conditions: peptide 0.125 wt. % at the optimal ingredient concentrations, in words
Experimental: The stability of the formulations was determined by visual inspection and by quantification of the amount of active ingredient by high performance liquid chromatography (HPLC).
Visual inspection: The results are classified as OK or KO according to the physical appearance. OK represents a transparent solution at t=0 h with small particles at the bottom after 24h. KO represents solutions completely separated into phases, turbid or with an unacceptable precipitate at the bottom.

Log P of the peptides = type: physicochemical

compatibility of the peptide with the composition [1] | logP (Log P of the peptides) | Compound
good compatibility | -5.84 | Ac-EEMQRRAD-NH2 [PEP-2, Ac-Glu-Glu-Met-Gln-Arg-Arg-Ala-Asp-NH2]
good compatibility | -3.38 | H-FWMKRKRVP-NH2 [PEP-8, H-Phe-Trp-Met-Lys-Arg-Lys-Arg-Val-Pro-NH2]

Compound | compatibility of the peptide with the composition [1] | logP (Log P of the peptides)
CC(C)C[C@H](NC(=O)[C@H](Cc1ccccc1)NC(=O)CNC(=O)[C@@H](C)NC(=O)[C@@H](N)Cc1ccc(O)cc1)C(=O)O [PEP-9, H-Tyr-D-Ala-Gly-Phe-Leu-OH] | good compatibility | -1.02
